Earlier results as cited in patent publication US20030109682A1, “Maytansines and maytansine conjugates” (priority 2001, published 2003).

Experiments:
[1] = test system: acute lymphocytic leukemia, breast carcinoma, ovarian cancer, thymoma, melanoma, and non-small scale lung cancer; conditions: Phase I, patients with acute lymphocytic leukemia
[2] = Phase II trials

COc1cc2cc(c1Cl)N(C)C(=O)C[C@H](OC(=O)[C@H](C)N(C)C(C)=O)[C@]1(C)O[C@H]1[C@H](C)[C@@H]1C[C@@](O)(NC(=O)O1)[C@H](OC)/C=C/C=C(\C)C2 [Maytansine]
clinical response [1]: encouraging responses
gastrointestinal toxicity [2]: manageable gastrointentinal toxicity
neurotoxicity at the site of administration [2]: pain of such magnitude as to prevent further administration
